# US8193160B2 (priority 2006, dated 2012)
# How the values were obtained:
# [1] = system: Magnaporthe vegetative mycelia, abc3Δ mutant; assay type: cell-based
# abc3Δ mutant = assay type: cell-based, Magnaporthe grisea
Compound,"Minimum Inhibitory Concentration (MIC), abc3Δ [1] [µg/mL]",growth under oxidative stress (abc3Δ mutant)
CCCCNC(=O)n1c(NC(=O)OC)nc2ccccc21 [Benomyl],2,–
C[C@H]1CCC/C=C/[C@@H]2C[C@H](O)C[C@H]2[C@H](O)/C=C/C(=O)O1 [Brefeldin A],40,–
OC(Cn1cncn1)(Cn1cncn1)c1ccc(F)cc1F [Fluconazole],2500,–
CCC(=C/[C@H](C)C/C=C/C(C)=C/[C@@H](C)C(=O)[C@@H](C)[C@H](O)[C@@H](C)C/C(C)=C/C(=O)O)/C=C/[C@@H]1OC(=O)C=C[C@@H]1C [Leptomycin B],0.0075,–
CC(C)[C@@H]1NC(=O)[C@H](C)OC(=O)[C@@H](C(C)C)NC(=O)[C@@H](C(C)C)OC(=O)[C@H](C(C)C)NC(=O)[C@H](C)OC(=O)[C@@H](C(C)C)NC(=O)[C@@H](C(C)C)OC(=O)[C@H](C(C)C)NC(=O)[C@H](C)OC(=O)[C@@H](C(C)C)NC(=O)[C@@H](C(C)C)OC1=O [Valinomycin],3,–
OO [hydrogen peroxide],–,lethal
Actinomycin D,3.5,–
Gramicidin D,180,–
